Where two headings read alike, the source gives them in different places.
What was measured:
[1] = Cell viability / cell death in healthy HaCaT cells; assay type: cell-based, human; conditions: human, HaCaT cells (healthy keratinocytes), HaCaT
Protocol: Breast cancer cell line MDA-MB-231, anaplastic thyroid cancer cell line CAL-62 and human keratinocytes HaCaT were purchased from ATCC and were cultured in RPMI 1640 medium (R0883 Sigma Aldrich-MERCK) (MDA-MB-231 and CAL-62) or DMEM medium (11965092, Gibco) supplemented with 10% fetal bovine serum (Sigma-Aldrich-MERCK, F9665), 2 mM glutamine (G7513; Sigma-Aldrich-MERCK), 100 units/mL penicillin and 0.1 mg/mL streptomycin (P0781; Sigma-Aldrich-MERCK). Adherent cells were detached by Trypsin–EDTA solution (TA049; Sigma-Aldrich-MERCK). Cells were maintained at 37 °C in humidified incubator with 5% CO2. Cells were treated with […] (CoCl2) (Merck; C8661) dissolved in distilled, sterile water for 24 h to induce hypoxia (200 μM). […] SIRT3 inhibitor 3-TYP was dissolved in DMSO and added to a final concentration of 1 μM for 24 and/or 48 h.
Cell viability was assessed by the trypan blue exclusion assay. At the end of treatments, cells were harvested and stained with 0,4% trypan blue (Merck; T8154). The cell suspension was applied to a hemocytometer and counted with phase contrast microscopy (NIKON EclipseTE2000U, Nikon Netherlands, Amsterdam, The Netherlands).

[2] = test system: acK68- and acK122-MnSOD in MDA-MB-231 cells; assay: Western blot of MnSOD acK68 and acK122 marks in MDA-MB-231 cells; assay type: cell-based, human; conditions: 4 h, MDA-MB-231
Protocol: K68-MnSOD acetylation promotes a transformation-permissive phenotype, leading to a chemotherapy-resistant breast cancer cell model using cisplatin and doxorubicin.[68] […] The specific SIRT3 inhibitor 3-TYP was utilized as negative control.
Breast cancer cell line MDA-MB-231, anaplastic thyroid cancer cell line CAL-62 and human keratinocytes HaCaT were purchased from ATCC and were cultured in RPMI 1640 medium (R0883 Sigma Aldrich-MERCK) (MDA-MB-231 and CAL-62) or DMEM medium (11965092, Gibco) supplemented with 10% fetal bovine serum (Sigma-Aldrich-MERCK, F9665), 2 mM glutamine (G7513; Sigma-Aldrich-MERCK), 100 units/mL penicillin and 0.1 mg/mL streptomycin (P0781; Sigma-Aldrich-MERCK). Adherent cells were detached by Trypsin–EDTA solution (TA049; Sigma-Aldrich-MERCK). Cells were maintained at 37 °C in humidified incubator with 5% CO2. Cells were treated with […] (CoCl2) (Merck; C8661) dissolved in distilled, sterile water for 24 h to induce hypoxia (200 μM). […]
The following antibodies were used in this study: ACTB (Merck; A5316), HIF1-α (Cell Signaling; 14179), HIF2/EPAS-1 (Santa Cruz Biotechnology sc-13596), HXKII (Santa Cruz Biotechnology sc-6521), CAIX (Novus Biotechnology NB100-417), SIRT3 (Cell Signaling; 2627S), MnSOD (Abcam ab13533), MnSOD K68 (Abcam ab137037), MnSOD K122 (Abcam ab214675), peroxidase-conjugated AffiniPure Goat Anti-Rabbit IgG (H + L) (Jackson ImmunoResearch; 111-035-003), and peroxidase-conjugated AffiniPure Goat Anti-Mouse IgG (H + L) (Jackson ImmunoResearch; 115-035-062).
Treated and untreated cells were collected and centrifuged at 3000 rpm for 5 min. […] Protein concentration was determined by the Bradford assay (Bio-Rad; 500-0205). […] After three more washes in PBST, the detection of the relevant protein was assessed by enhanced chemiluminescence (Lite Ablot TURBO, Euro-Clone; EMP012001). […]

CAL-62 cells = assay: Cell viability / cell death, trypan blue exclusion, CAL-62; assay type: cell-based; conditions: for IC50: read-out: IC50 cell viability reduction

CCOC(=O)C1=CN(C(=O)c2cc(OC)cc(OC)c2)C=C(C(=O)OCC)C1c1ccccc1 [Compound 3d, Diethyl 1-(3,5-dimethoxybenzoyl)-4-phenyl-1,4-dihydropyridine-3,5-dicarboxylate]
viability at 24 h, 5 µM ([1]; 5 μM, 24 h, read-out: Cell viability (%) T24): 96.1%
viability at 48 h, 5 µM ([1]; 5 μM, 48 h, read-out: Cell viability (%) T48): 83.9%
viability at 24 h, 10 µM ([1]; 10 μM, 24 h, read-out: Cell viability (%) T24): 91.6%
viability at 48 h, 10 µM ([1]; 10 μM, 48 h, read-out: Cell viability (%) T48): 66.1%
viability at 24 h, 25 µM ([1]; 25 μM, 24 h, read-out: Cell viability (%) T24): 84.7%
viability at 48 h, 25 µM ([1]; 25 μM, 48 h, read-out: Cell viability (%) T48): 52.7%
acK122-MnSOD deacetylation ([2]; 10 μM): significant acK122 deacetylation
ratio acK68- or acK122-MnSOD/MnSOD ([2]; 50 μM): decrease
Cell death (%) T24 (CAL-62 cells; CAL-62, 5 μM, 24 h): 14,3%
Cell death (%) T48 (CAL-62 cells; CAL-62, 5 μM, 48 h): 21,7%
Cell death (%) T24 (CAL-62 cells; CAL-62, 10 μM, 24 h): 20,4%
Cell death (%) T24 (CAL-62 cells; CAL-62, 25 μM, 24 h): 25,6%
Cell death (%) T48 (CAL-62 cells; CAL-62, 25 μM, 48 h): 66,1%
higher efficacy in hypoxia than in normoxia (cell viability reduction and cell death induction) (CAL-62 cells; CAL-62, 48 h): 4.8 fold
IC50 (CAL-62 cells; Homo sapiens, CAL-62, 48 h, hypoxia): ~3.5 µM
IC50 (CAL-62 cells; Homo sapiens, CAL-62, 48 h, normoxia): ~16.7 µM
viability at 5 µM (CAL-62 cells; Homo sapiens, CAL-62, 5 μM, 24 h, read-out: Cell viability (%) T24): 85.7%
viability at 5 µM (CAL-62 cells; Homo sapiens, CAL-62, 5 μM, 48 h, read-out: Cell viability (%) T48): 78.3%
viability at 10 µM (CAL-62 cells; Homo sapiens, CAL-62, 10 μM, 48 h, read-out: Cell viability (%) T48): 63.5%
viability at 25 µM (CAL-62 cells; Homo sapiens, CAL-62, 25 μM, 24 h, read-out: Cell viability (%) T24): 74.4%
viability at 25 µM (CAL-62 cells; Homo sapiens, CAL-62, 25 μM, 48 h, read-out: Cell viability (%) T48): 33.8%

— paper PMC10388363, “Novel 1,4-Dihydropyridines as Specific Binders and Activators of SIRT3 Impair Cell Viability and Clonogenicity and Downregulate Hypoxia-Induced Targets in Cancer Cells” (Journal of Medicinal Chemistry, 2023)
